Some results are limits rather than exact numbers.

In general, IC50 refers to the point on the concentration scale where inhibition reaches its midpoint. Read a high IC50 as lower potency.

The target of this assay is [35S]-TBPS binding, rat brain cortical membranes. The assay can be described thus: Steroid inhibition of TBPS binding ([35S]-TBPS radioligand displacement). Conditions: 3 nM [35S]-TBPS, 5 μM GABA. The protocol: TBPS binding assays using rat brain cortical membranes in the presence of 5 μM GABA has been described (Gee et al, J. Pharmacol. Exp. Then 1987, 241, 346-353; Hawkinson et al, Mol. Pharmacol. 1994, 46, 977-985; Lewin, A. H et al., Mol. Pharmacol. 1989, 35, 189-194).
Briefly, cortices are rapidly removed following decapitation of carbon dioxide-anesthetized Sprague-Dawley rats (200-250 g). The cortices are homogenized in 10 volumes of […] using a glass/teflon homogenizer and centrifuged at 1500×g for 10 min at 4° C. The resultant supernatants are centrifuged at 10,000×g for 20 min at 4° C. to obtain the P2 pellets. The P2 pellets are resuspended in 200 mM NaCl/50 mM Na—K phosphate pH 7.4 buffer and centrifuged at 10,000×g for 10 min at 4° C. This washing procedure is repeated twice and the pellets are resuspended in 10 volumes of buffer. Aliquots (100 μL) of the membrane suspensions are incubated with 3 nM [^35S]-TBPS and 5 μL aliquots of test drug dissolved in dimethyl sulfoxide (DMSO) (final 0.5%) in the presence of 5 μM GABA. The incubation is brought to a final volume of 1.0 mL with buffer. […] Following a 90 min incubation at room temp, the assays are terminated by filtration through glass fiber filters (Schleicher and Schuell No. 32) using a cell harvester (Braudel) and rinsed three times with ice-cold buffer. Filter bound radioactivity is measured by liquid scintillation spectrometry. Non-linear curve fitting of the overall data for each drug averaged for each concentration is done using Prism (GraphPad).
Various compounds are or can be screened to determine their potential as modulators of [^35S]-TBPS binding in vitro. These assays are or can be performed in accordance with the above discussed procedures.
Compound `C[C@@]1(O)CC[C@@]2(C)[C@@H](CC[C@@H]3[C@@H]2CC[C@]2(C)[C@@H](C(=O)Cn4cc5cc(F)ccc5n4)CC[C@@H]32)C1` [Compound 239] returned an IC50 of 0.01 to 0.05 µM.
`C[C@H](C(=O)[C@H]1CC[C@H]2[C@@H]3CC[C@H]4C[C@](C)(O)CC[C@]4(C)[C@H]3CC[C@]12C)n1nccn1` [Compound 90, (R)-1-((3R,5S,8R,9S,10S,13S,14S,17S)-3-hydroxy-3,10,13-trimethylhexadecahydro-1H-cyclopenta[a]phenanthren-17-yl)-2-(2H-1,2,3-triazol-2-yl)propan-1-one] came in with an IC50 of more than 0.5 µM.
Next, `C[C@@]1(O)CC[C@@]2(C)[C@H](CC[C@@H]3[C@@H]2CC[C@]2(C)[C@@H](C(=O)Cn4cc(C#N)cn4)CC[C@@H]32)C1` [Compound 10, 1-(2-((3R,5R,8R,9S,10S,13S,14S,17S)-3-hydroxy-3,10,13-trimethylhexadecahydro-1H-cyclopenta[a]phenanthren-17-yl)-2-oxoethyl)-1H-pyrazole-4-carbonitrile]: less than 0.01 µM; `C[C@H](C(=O)[C@H]1CC[C@H]2[C@@H]3CC[C@@H]4C[C@](C)(O)CC[C@]4(C)[C@H]3CC[C@]12C)n1nc2ccccc2n1` [Compound 60, (R)-2-(2H-benzo[d][1,2,3]triazol-2-yl)-1-((3R,5R,8R,9S,10S,13S,14S,17S)-3-hydroxy-3,10,13-trimethylhexadecahydro-1H-cyclopenta[a]phenanthren-17-yl)propan-1-one]: 0.01 to 0.05 µM.
`C[C@@]1(O)CC[C@@]2(C)[C@@H](CC[C@@H]3[C@@H]2CC[C@]2(C)[C@@H](C(=O)Cn4nc5ccc(F)cc5n4)CC[C@@H]32)C1` [Compound 245]: the IC50 lay within 0.01 to 0.05 µM.
As to `CN(C)C(=O)c1cnn(CC(=O)[C@H]2CC[C@H]3[C@@H]4CC[C@@H]5C[C@](C)(O)CC[C@]5(C)[C@H]4CC[C@]23C)c1` [Compound 86], the IC50 is less than 0.01 µM.
The result for `C[C@@H](C(=O)[C@H]1CC[C@H]2[C@@H]3CC[C@@H]4C[C@](C)(O)CC[C@]4(C)[C@H]3CC[C@]12C)n1nccn1` [Compound 57, (S)-1-((3R,5R,8R,9S,10S,13S,14S,17S)-3-hydroxy-3,10,13-trimethylhexadecahydro-1H-cyclopenta[a]phenanthren-17-yl)-2-(2H-1,2,3-triazol-2-yl)propan-1-one] reads 0.1 to 0.5 µM; that for `C[C@@H](C(=O)[C@H]1CC[C@H]2[C@@H]3CC[C@H]4C[C@](C)(O)CC[C@]4(C)[C@H]3CC[C@]12C)n1cc(C#N)cn1` [Compound 81, 1-((S)-1-((3R,5S,8R,9S,10S,13S,14S,17S)-3-hydroxy-3,10,13-trimethylhexadecahydro-1H-cyclopenta[a]phenanthren-17-yl)-1-oxopropan-2-yl)-1H-pyrazole-4-carbonitrile], 0.01 to 0.05 µM; that for `C[C@H](C(=O)[C@H]1CC[C@H]2[C@@H]3CC[C@@H]4C[C@](C)(O)CC[C@]4(C)[C@H]3CC[C@]12C)n1nnc2ccccc21` [Compound 62, (R)-2-(1H-benzo[d][1,2,3]triazol-1-yl)-1-((3R,5R,8R,9S,10S,13S,14S,17S)-3-hydroxy-3,10,13-trimethylhexadecahydro-1H-cyclopenta[a]phenanthren-17-yl)propan-1-one], 0.1 to 0.5 µM.
Turning to `C[C@@]1(O)CC[C@@]2(C)[C@@H](CC[C@@H]3[C@@H]2CC[C@]2(C)[C@@H](C(=O)Cn4nc5ccc(F)cc5n4)CC[C@@H]32)C1` [Compound 246], the 50% inhibitory concentration (IC50) was less than 0.01 µM.
`C[C@@]1(O)CC[C@@]2(C)[C@@H](CC[C@@H]3[C@@H]2CC[C@]2(C)[C@@H](C(=O)Cn4ncc5ccc(F)cc54)CC[C@@H]32)C1` [Compound 238]: the IC50 was in the range of 0.05 to 0.1 µM.
Consider `C[C@@H](C(=O)[C@H]1CC[C@H]2[C@@H]3CC[C@H]4C[C@](C)(O)CC[C@]4(C)[C@H]3CC[C@]12C)n1ccnn1` [Compound 93, (S)-1-((3R,5S,8R,9S,10S,13S,14S,17S)-3-hydroxy-3,10,13-trimethylhexadecahydro-1H-cyclopenta[a]phenanthren-17-yl)-2-(1H-1,2,3-triazol-1-yl)propan-1-one], for which the 50% inhibitory concentration (IC50) is 0.1 to 0.5 µM.
`C[C@@H](C(=O)[C@H]1CC[C@H]2[C@@H]3CC[C@H]4C[C@](C)(O)CC[C@]4(C)[C@H]3CC[C@]12C)n1nc2ccccc2n1` [Compound 99, (S)-2-(2H-benzo[d][1,2,3]triazol-2-yl)-1-((3R,5S,8R,9S,10S,13S,14S,17S)-3-hydroxy-3,10,13-trimethylhexadecahydro-1H-cyclopenta[a]phenanthren-17-yl)propan-1-one]: the IC50 lay within 0.01 to 0.05 µM.
In turn, `CC(C(=O)[C@H]1CC[C@H]2[C@@H]3CC[C@@H]4C[C@](C)(O)CC[C@]4(C)[C@H]3CC[C@]12C)n1ccnn1` (stereo in doubt) [Compound 58, (R)-1-((3R,5R,8R,9S,10S,13S,14S,17S)-3-hydroxy-3,10,13-trimethylhexadecahydro-1H-cyclopenta[a]phenanthren-17-yl)-2-(1H-1,2,3-triazol-1-yl)propan-1-one] came in with a half-inhibitory concentration (IC50) of more than 0.5 µM.
`C[C@H](C(=O)[C@H]1CC[C@H]2[C@@H]3CC[C@@H]4C[C@](C)(O)CC[C@]4(C)[C@H]3CC[C@]12C)n1cc(C#N)cn1` [Compound 72, 1-((R)-1-((3R,5R, 8R, 9S, 10S, 13S, 14S, 17S)-3-hydroxy-3,10,13-trimethylhexadecahydro-1H-cyclopenta[a]phenanthren-17-yl)-1-oxopropan-2-yl)-1H-pyrazole-4-carbonitrile] showed an IC50 of 0.01 to 0.05 µM.
As to `C[C@H](C(=O)[C@H]1CC[C@H]2[C@@H]3CC[C@H]4C[C@](C)(O)CC[C@]4(C)[C@H]3CC[C@]12C)n1nnc2ccccc21` [Compound 100, (R)-2-(1H-benzo[d][1,2,3]triazol-1-yl)-1-((3R,5S,8R,9S,10S,13S,14S,17S)-3-hydroxy-3,10,13-trimethylhexadecahydro-1H-cyclopenta[a]phenanthren-17-yl)propan-1-one], the IC50 was more than 0.5 µM.
Compound `C[C@@]1(O)CC[C@@]2(C)[C@@H](CC[C@@H]3[C@@H]2CC[C@]2(C)[C@@H](C(=O)Cn4cc5ccc(F)cc5n4)CC[C@@H]32)C1` [Compound 237] displayed an IC50 of 0.01 to 0.05 µM.
With `CC(C(=O)[C@H]1CC[C@H]2[C@@H]3CC[C@@H]4C[C@](C)(O)CC[C@]4(C)[C@H]3CC[C@]12C)n1nnc2ccccc21` (stereo in doubt) [Compound 63, (S)-2-(1H-benzo[d][1,2,3]triazol-1-yl)-1-((3R,5R,8R,9S,10S,13S,14S,17S)-3-hydroxy-3,10,13-trimethylhexadecahydro-1H-cyclopenta[a]phenanthren-17-yl)propan-1-one], the IC50 was in the range of 0.01 to 0.05 µM.
`C[C@H](C(=O)[C@H]1CC[C@H]2[C@@H]3CC[C@H]4C[C@](C)(O)CC[C@]4(C)[C@H]3CC[C@]12C)n1cc(C#N)cn1` [Compound 80, 1-((R)-1-((3R,5S,8R,9S,10S,13S,14S,17S)-3-hydroxy-3,10,13-trimethylhexadecahydro-1H-cyclopenta[a]phenanthren-17-yl)-1-oxopropan-2-yl)-1H-pyrazole-4-carbonitrile]: the IC50 is 0.1 to 0.5 µM.
`C[C@@]1(O)CC[C@@]2(C)[C@@H](CC[C@@H]3[C@@H]2CC[C@]2(C)[C@@H](C(=O)Cc4cccc(F)c4)CC[C@@H]32)C1` [Compound 257] gave an IC50 of 0.1 to 0.5 µM.
The result for `C[C@@]1(O)CC[C@@]2(C)[C@H](CC[C@@H]3[C@@H]2CC[C@]2(C)[C@@H](C(=O)CN4CCOCC4)CC[C@@H]32)C1` [Compound 43, 1-((3R,5R,8R,9S,10S,13S,14S,17S)-3-hydroxy-3,10,13-trimethylhexadecahydro-1H-cyclopenta[a]phenanthren-17-yl)-2-morpholinoethanone] reads 0.1 to 0.5 µM; that for `C[C@@H](C(=O)[C@H]1CC[C@H]2[C@@H]3CC[C@H]4C[C@](C)(O)CC[C@]4(C)[C@H]3CC[C@]12C)n1nnc2ccccc21` [Compound 101, (S)-2-(1H-benzo[d][1,2,3]triazol-1-yl)-1-((3R,5S,8R,9S,10S,13S,14S,17S)-3-hydroxy-3,10,13-trimethylhexadecahydro-1H-cyclopenta[a]phenanthren-17-yl)propan-1-one], 0.05 to 0.1 µM; that for `CSc1ccc2nnn(CC(=O)[C@H]3CC[C@H]4[C@@H]5CC[C@H]6C[C@](C)(O)CC[C@]6(C)[C@H]5CC[C@]34C)c2c1` [Compound 248], less than 0.01 µM.
Compound `C[C@H](C(=O)[C@H]1CC[C@H]2[C@@H]3CC[C@H]4C[C@](C)(O)CC[C@]4(C)[C@H]3CC[C@]12C)n1nc2ccccc2n1` [Compound 98, (R)-2-(2H-benzo[d][1,2,3]triazol-2-yl)-1-((3R,5S,8R,9S,10S,13S,14S,17S)-3-hydroxy-3,10,13-trimethylhexadecahydro-1H-cyclopenta[a]phenanthren-17-yl)propan-1-one] yielded an IC50 of 0.05 to 0.1 µM.

The values above are taken from patent publication US11530237B2, “Compositions and methods for treating CNS disorders” (Sage Therapeutics, Inc., priority 2014, dated 2022).
